Tested on: participants with SSc-RP
Assay: Frequency of weekly RP attacks (all attacks; primary efficacy endpoint)
Format: in vivo, human
Conditions: for Weekly RP Attacks (All Attacks) Change from Baseline, Mean / Weekly RP Attacks (All Attacks) Change from Baseline, Median / Weekly RP Attacks (All Attacks) Percent Change from Baseline, Mean / Weekly RP Attacks (All Attacks) Percent Change from Baseline, Median / Weekly RP Attacks (All Attacks), Mean / Weekly RP Attacks (All Attacks), Median: Excluding Outliers, by Baseline RCS, ITT Part A; for Weekly RP Attacks Change from Baseline, Max / Weekly RP Attacks Change from Baseline, Mean (SD) / Weekly RP Attacks Change from Baseline, Median / Weekly RP Attacks Change from Baseline, Min / Weekly RP Attacks Change from Baseline, Q1 / Weekly RP Attacks Change from Baseline, Q3 / Weekly RP Attacks Percent Change from Baseline, Max / Weekly RP Attacks Percent Change from Baseline, Mean (SD) / Weekly RP Attacks Percent Change from Baseline, Median / Weekly RP Attacks Percent Change from Baseline, Min / Weekly RP Attacks Percent Change from Baseline, Q1 / Weekly RP Attacks Percent Change from Baseline, Q3 / Weekly RP Attacks, Max / Weekly RP Attacks, Mean (SD) / Weekly RP Attacks, Median / Weekly RP Attacks, Min / Weekly RP Attacks, Q1 / Weekly RP Attacks, Q3: all attacks, excluding outliers, tadalafil 5 mg daily
Description: Percent change from baseline evaluation for frequency of weekly RP attacks were or will be used as the primary efficacy variable. The sponsor-developed participant-informed diary will be used to record data. Frequency of weekly RP attacks is defined as the total number of RP attacks divided by the number of days with available diary data within the last 7 days of each dosing period then multiplied by 7. Total number of RP attacks during the last 7 days of screening period divided by the number of days with available data then multiplied by 7 will be used as baseline for the analysis of all periods. The variable will be calculated as follows:
Percentage change={(weekly RP attacks for the last 7 days of each dosing period−Baseline weekly RP attacks)/Baseline weekly RP attacks}*100%.
Absolute change=weekly RP attacks for the last 7 days of each dosing period−Baseline weekly RP attacks
Percent change from baseline evaluation for frequency of weekly RP attacks was and will be the primary efficacy endpoint. Frequency of weekly RP attacks is defined as the total number of RP attacks divided by the number of days with available diary data within the last 7 days of each dosing period then multiplied by 7. Total number of RP attacks during the last 7 days of screening period divided by the number of days with available data then multiplied by 7 will be used as baseline for the analysis of all periods.
Percent change from baseline evaluation for frequency of weekly RP attacks were the primary efficacy endpoint. Data collected in the last 7 days of each dosing period were used for this analysis. Screening assessments were used as baseline for the analysis of all periods. No multiple comparison adjustment were used to control alpha for the multiple comparisons. Mixed effects model were used for analysis of the primary endpoint according to the crossover design. Other efficacy endpoints of continuous variables were analyzed using similar methodology. For nominal data, chi-square tests were applied. Generalized Estimating Equations method were used, as appropriate, for adjusting for potential confounding factors. In addition, the final analysis assessed whether in this study of severe Raynaud's disease participants, the minimally important difference, previously concluded of 14-15 points on the 100 point RCS scale had been achieved in the cilnidipine dose group. It also recorded the percentage of participants achieving a PASS (34 point difference from baseline on a 0-100 VAS) in each treatment group.

[1] = Cilnidipine 10 mg, n=1, first subgroup
[2] = Cilnidipine 20 mg (n=3), subgroup n = 2
[3] = Cilnidipine 20 mg, n=2, first subgroup
[4] = Pooled Cilnidipine 10 mg and Cilnidipine 10 mg + Tadalafil 5 mg, n=1, second subgroup
[5] = Pooled Cilnidipine 10 mg and Cilnidipine 10 mg + Tadalafil 5 mg, n=2, first subgroup
[6] = Pooled Cilnidipine 20 mg and Cilnidipine 20 mg + Tadalafil 5 mg, n=1, second subgroup
[7] = Pooled Cilnidipine 20 mg and Cilnidipine 20 mg + Tadalafil 5 mg, n=3, first subgroup
[8] = Pooled Cilnidipine (n = 7), subgroup n = 2
[9] = Pooled Cilnidipine, n=3, first subgroup
[10] = pooled cilnidipine 10 mg and 20 mg

## COCCOC(=O)C1=C(C)NC(C)=C(C(=O)OC/C=C/c2ccccc2)C1c1cccc([N+](=O)[O-])c1 (stereo not drawn) [Cilnidipine, cilnidipine]
10 mg of cilnidipine (n=3 for both doses)
  reduction in weekly frequency of typical Raynaud attacks: 28%
20 mg of cilnidipine (n=3 for both doses)
  reduction in weekly frequency of typical Raynaud attacks: 46%
[1]
  Weekly RP Attacks (All Attacks) Change from Baseline, Mean: −9.00
  Weekly RP Attacks (All Attacks) Change from Baseline, Median: −9.00
  Weekly RP Attacks (All Attacks) Percent Change from Baseline, Mean: −28.13%
  Weekly RP Attacks (All Attacks) Percent Change from Baseline, Median: −28.13%
  Weekly RP Attacks (All Attacks), Mean: 23.00
  Weekly RP Attacks (All Attacks), Median: 23.00
Cilnidipine 20 mg (n=3), subgroup n = 1
  Subgroup Baseline RCS, <3.5 baseline: <3.5 baseline −42%
[2]
  Subgroup Baseline RCS, >3.5-7.5 baseline: >3.5-7.5 baseline −43%
  Subgroup attack frequency, <10 baseline: <10 baseline −29%
  Subgroup attack frequency, >10 baseline: >10 baseline −50%
[3]
  Weekly RP Attacks (All Attacks) Change from Baseline, Mean: −6.67
  Weekly RP Attacks (All Attacks) Change from Baseline, Median: −6.67
  Weekly RP Attacks (All Attacks) Percent Change from Baseline, Mean: −45.71%
  Weekly RP Attacks (All Attacks) Percent Change from Baseline, Median: −45.71%
  Weekly RP Attacks (All Attacks), Mean: 8.00
  Weekly RP Attacks (All Attacks), Median: 8.00
Cilnidipine (20 mg) (n = 3)
  Mean % reduction of weekly attacks from baseline: 43%
  Mean weekly attacks at baseline: 12.7
  Weekly attack frequency: −43%
  Weekly attack frequency, If baseline RCS <3.5: −42%
[4]
  Weekly RP Attacks (All Attacks) Change from Baseline, Mean: −5.00
  Weekly RP Attacks (All Attacks) Change from Baseline, Median: −5.00
  Weekly RP Attacks (All Attacks) Percent Change from Baseline, Mean: −45.45%
  Weekly RP Attacks (All Attacks) Percent Change from Baseline, Median: −45.45%
  Weekly RP Attacks (All Attacks), Mean: 6.00
  Weekly RP Attacks (All Attacks), Median: 6.00
[5]
  Weekly RP Attacks (All Attacks) Change from Baseline, Mean: −6.50
  Weekly RP Attacks (All Attacks) Change from Baseline, Median: −6.50
  Weekly RP Attacks (All Attacks) Percent Change from Baseline, Mean: −36.28%
  Weekly RP Attacks (All Attacks) Percent Change from Baseline, Median: −36.28%
  Weekly RP Attacks (All Attacks), Mean: 14.00
  Weekly RP Attacks (All Attacks), Median: 14.00
[6]
  Weekly RP Attacks (All Attacks) Change from Baseline, Mean: −1.83
  Weekly RP Attacks (All Attacks) Change from Baseline, Median: −1.83
  Weekly RP Attacks (All Attacks) Percent Change from Baseline, Mean: −14.29%
  Weekly RP Attacks (All Attacks) Percent Change from Baseline, Median: −14.29%
  Weekly RP Attacks (All Attacks), Mean: 11.00
  Weekly RP Attacks (All Attacks), Median: 11.00
[7]
  Weekly RP Attacks (All Attacks) Change from Baseline, Mean: −5.78
  Weekly RP Attacks (All Attacks) Change from Baseline, Median: −4.33
  Weekly RP Attacks (All Attacks) Percent Change from Baseline, Mean: −37.49%
  Weekly RP Attacks (All Attacks) Percent Change from Baseline, Median: −45.00%
  Weekly RP Attacks (All Attacks), Mean: 10.33
  Weekly RP Attacks (All Attacks), Median: 11.00
Pooled Cilnidipine (n = 7)
  Weekly attack frequency: −41%
  Weekly attack frequency, If baseline RCS <3.5: −27%
Pooled Cilnidipine (n = 7), subgroup n = 1
  Subgroup Baseline RCS, 3.5-7.5 baseline: 3.5-7.5 baseline −86%
[8]
  Subgroup attack frequency, <10 baseline: <10 baseline −55%
  Subgroup attack frequency, >10 baseline: >10 baseline −28%
Pooled Cilnidipine (n = 7), subgroup n = 3
  Subgroup Baseline RCS, <3.5 baseline: <3.5 baseline −27%
[9]
  Weekly RP Attacks (All Attacks) Change from Baseline, Mean: −7.44
  Weekly RP Attacks (All Attacks) Change from Baseline, Median: −9.00
  Weekly RP Attacks (All Attacks) Percent Change from Baseline, Mean: −39.85%
  Weekly RP Attacks (All Attacks) Percent Change from Baseline, Median: −45.00%
  Weekly RP Attacks (All Attacks), Mean: 13.00
  Weekly RP Attacks (All Attacks), Median: 11.00
Cilnidipine 10 mg
  Weekly RP Attacks Change from Baseline, Max: −9.0, −9.0
  Weekly RP Attacks Change from Baseline, Mean (SD): −9.00
  Weekly RP Attacks Change from Baseline, Median: −9.00
  Weekly RP Attacks Change from Baseline, Min: −9.0, −9.0
  Weekly RP Attacks Change from Baseline, Q1: −9.00, −9.00
  Weekly RP Attacks Change from Baseline, Q3: −9.00, −9.00
  Weekly RP Attacks Percent Change from Baseline, Max: −28.1, −28.1%
  Weekly RP Attacks Percent Change from Baseline, Mean (SD): −28.13%
  Weekly RP Attacks Percent Change from Baseline, Median: −28.13%
  Weekly RP Attacks Percent Change from Baseline, Min: −28.1, −28.1%
  Weekly RP Attacks Percent Change from Baseline, Q1: −28.13, −28.13%
  Weekly RP Attacks Percent Change from Baseline, Q3: −28.13, −28.13%
  Weekly RP Attacks, Max: 23.0, 23.0
  Weekly RP Attacks, Mean (SD): 23.00
  Weekly RP Attacks, Median: 23.00
  Weekly RP Attacks, Min: 23.0, 23.0
  Weekly RP Attacks, Q1: 23.00, 23.00
  Weekly RP Attacks, Q3: 23.00, 23.00
Cilnidipine 20 mg
  Weekly RP Attacks Change from Baseline, Max: −4.3
  Weekly RP Attacks Change from Baseline, Mean (SD): −6.67 (3.300)
  Weekly RP Attacks Change from Baseline, Median: −6.67
  Weekly RP Attacks Change from Baseline, Min: −9.0
  Weekly RP Attacks Change from Baseline, Q1: −9.00
  Weekly RP Attacks Change from Baseline, Q3: −4.33
  Weekly RP Attacks Percent Change from Baseline, Max: −45.0%
  Weekly RP Attacks Percent Change from Baseline, Mean (SD): −45.71 (1.010) Percent
  Weekly RP Attacks Percent Change from Baseline, Median: −45.71%
  Weekly RP Attacks Percent Change from Baseline, Min: −46.4%
  Weekly RP Attacks Percent Change from Baseline, Q1: −46.43%
  Weekly RP Attacks Percent Change from Baseline, Q3: −45.00%
  Weekly RP Attacks, Max: 11.0
  Weekly RP Attacks, Mean (SD): 8.00 (4.243)
  Weekly RP Attacks, Median: 8.00
  Weekly RP Attacks, Min: 5.0
  Weekly RP Attacks, Q1: 5.00
  Weekly RP Attacks, Q3: 11.00
[10]
  Weekly RP Attacks Change from Baseline, Max: −4.3
  Weekly RP Attacks Change from Baseline, Mean (SD): −7.44 (2.694)
  Weekly RP Attacks Change from Baseline, Median: −9.00
  Weekly RP Attacks Change from Baseline, Min: −9.0
  Weekly RP Attacks Change from Baseline, Q1: −9.00
  Weekly RP Attacks Change from Baseline, Q3: −4.33
  Weekly RP Attacks Percent Change from Baseline, Max: −28.1%
  Weekly RP Attacks Percent Change from Baseline, Mean (SD): −39.85 (10.180) Percent
  Weekly RP Attacks Percent Change from Baseline, Median: −45.00%
  Weekly RP Attacks Percent Change from Baseline, Min: −46.4%
  Weekly RP Attacks Percent Change from Baseline, Q1: −46.43%
  Weekly RP Attacks Percent Change from Baseline, Q3: −28.13%
  Weekly RP Attacks, Max: 23.0
  Weekly RP Attacks, Mean (SD): 13.00 (9.165)
  Weekly RP Attacks, Median: 11.00
  Weekly RP Attacks, Min: 5.0
  Weekly RP Attacks, Q1: 5.00

Source: US20240358693A1, “METHODS OF TREATING PAIN” (Aisa Pharma, Inc., priority 2023, published 2024)
